# Experimental data reported in patent publication US11504382B2, “Tricyclic inhibitors of Hepatitis B virus” (Antios Therapeutics, Inc., priority 2018, dated 2022).
# Test system: HBV
# Test: HBV inhibition assay in HepAD38 cells (extracellular HBV DNA by direct qPCR)
# Assay type: cell-based, Hepatitis B virus
# Conditions: 0.05 μM, 96 hours, relative to non-treated reference
row,Compound,Anti HBV Activity (conc μM)
1,"CCOC(=O)N1CC2COc3c(cn(C)c3C(=O)Nc3ccc(F)c(C#N)c3)S(=O)(=O)NC2C1 (single isomer, unassigned) [Example E45, Ethyl 8-((3-cyano-4-fluorophenyl)carbamoyl)-7-methyl-3a,4,10,10a-tetrahydro-1H,7H-dipyrrolo[3,4-b:3′,4′-f][1,4,5]oxathiazocine-2(3H)-carboxylate 5,5-dioxide (Chiral 3aS,10aS or 3aR,10aR - Stereochemistry unknown)]",A (0.05) (HBV inhibition greater than 50% at the concentration indicated in the table)

# Same assay, conditions: 96 hours, 8-point dose-response curve, read-out: HBV inh EC50
row,Compound,EC50 [nM]
1,"CCOC(=O)N1CC2NS(=O)(=O)c3cn(C)c(C(=O)Nc4cc(F)c(F)c(F)c4)c3OCC2(C)C1 (single isomer, unassigned) [Example E92, Ethyl 7,10a-dimethyl-8-((3,4,5-trifluorophenyl)carbamoyl)-3a,4,10,10a-tetrahydro-1H,7H-dipyrrolo[3,4-b:3′,4′-f][1,4,5]oxathiazocine-2(3H)-carboxylate 5,5-dioxide (Chiral 3aS,10aS or 3aR,10aR - Stereochemistry unknown)]",< 1000
2,"Cc1cc(NC(=O)c2c3c(cn2C)S(=O)(=O)NC2CCN(C(=O)C4(C)CCCO4)CC2CO3)ccc1F (racemic) [Example E132, Trans-N-(4-fluoro-3-methylphenyl)-2-methyl-8-(2-methyltetrahydrofuran-2-carbonyl)-5,5a,6,7,8,9,9a,10-octahydro-2H-pyrido[4,3-f]pyrrolo[3,4-b][1,4,5]oxathiazocine-1-carboxamide 4,4-dioxide]",< 1000

# Same assay, conditions: Hepatitis B virus, 0.05 μM, 96 hours, relative to non-treated reference, read-out: Anti HBV Activity (conc μM)
row,Compound,inhibition at 0.05 µM [%]
1,"Cc1nnc(C(=O)N2CC3COc4c(cn(C)c4C(=O)Nc4cc(F)c(F)c(F)c4)S(=O)(=O)NC3C2)o1 (stereo not drawn) [Example E51, cis-7-methyl-2-(5-methyl-1,3,4-oxadiazole-2-carbonyl)-N-(3,4,5-trifluorophenyl)-2,3,3a,4,10,10a-hexahydro-1H,7H-dipyrrolo[3,4-b:3′,4′-f][1,4,5]oxathiazocine-8-carboxamide 5,5-dioxide]",> 50

# Same assay, conditions: Hepatitis B virus, 0.1 μM, 96 hours, relative to non-treated reference, read-out: Anti HBV Activity (conc μM)
row,Compound,inhibition at 0.1 µM [%]
1,"Cc1cc(NC(=O)c2c3c(cn2C)S(=O)(=O)NC2CN(C(=O)c4cccnc4)CC2CO3)ccc1F (stereo not drawn) [Example E54, cis-N-(4-fluoro-3-methylphenyl)-7-methyl-2-nicotinoyl-2,3,3a,4,10,10a-hexahydro-1H,7H-dipyrrolo[3,4-b:3′,4′-f][1,4,5]oxathiazocine-8-carboxamide 5,5-dioxide]",> 50
2,"Cn1cc2c(c1C(=O)Nc1cc(F)c(F)c(F)c1)OC[C@H]1CN(C(=O)COP(=O)(O)O)C[C@H]1NS2(=O)=O (relative stereo) [Example E72, cis-2-(7-methyl-5,5-dioxido-8-((3,4,5-trifluorophenyl)carbamoyl)-3a,4,10,10a-tetrahydro-1H,7H-dipyrrolo[3,4-b:3′,4′-f][1,4,5]oxathiazocin-2(3H)-yl)-2-oxoethyl Dihydrogen Phosphate]",< 50
3,"Cn1cc2c(c1C(=O)Nc1cc(F)c(F)c(F)c1)OCC1CCCC1NS2(=O)=O (racemic) [Example E28, cis (5aR,8aS and 5aS,8aR)-2-methyl-N-(3,4,5-trifluorophenyl)-5a,6,7,8,8a,9-hexahydro-2H,5H-cyclopenta[f]pyrrolo[3,4-b][1,4,5]oxathiazocine-1-carboxamide 4,4-dioxide]",> 50
4,"Cc1noc(N2CC3COc4c(cn(C)c4C(=O)Nc4cc(F)c(F)c(F)c4)S(=O)(=O)NC3C2)n1 (stereo not drawn) [Example E83, cis-7-methyl-2-(3-methyl-1,2,4-oxadiazol-5-yl)-N-(3,4,5-trifluorophenyl)-2,3,3a,4,10,10a-hexahydro-1H,7H-dipyrrolo[3,4-b:3′,4′-f][1,4,5]oxathiazocine-8-carboxamide 5,5-dioxide]",> 50
5,"CCOC(=O)N1CC[C@H]2NS(=O)(=O)c3cn(C)c(C(=O)Nc4ccc(F)c(F)c4)c3OC[C@H]21 [Example E27, Ethyl (3aR,10aS)-8-((3,4-difluorophenyl)carbamoyl)-7-methyl-2,3,3a,4,10,10a-hexahydro-1H,7H-dipyrrolo[3,4-b:3′,2′-f][1,4,5]oxathiazocine-1-carboxylate 5,5-dioxide]",< 50
6,"CCOC(=O)N1CC2COc3c(cn(C)c3C(=O)Nc3ccc(F)c(F)c3)S(=O)(=O)NC2C1 (racemic) [Example E13, Cis-Ethyl 8-((3,4-difluorophenyl)carbamoyl)-7-methyl-3a,4,10,10a-tetrahydro-1H,7H-dipyrrolo[3,4-b:3′,4′-f][1,4,5]oxathiazocine-2(3H)-carboxylate 5,5-dioxide]",> 50
7,"C[C@H](N)C(=O)N1C[C@@H]2COc3c(cn(C)c3C(=O)Nc3cc(F)c(F)c(F)c3)S(=O)(=O)N[C@@H]2C1 (mixture of isomers) [Example E67, cis-2-(L-alanyl)-7-methyl-N-(3,4,5-trifluorophenyl)-2,3,3a,4,10,10a-hexahydro-1H,7H-dipyrrolo[3,4-b:3′,4′-f][1,4,5]oxathiazocine-8-carboxamide 5,5-dioxide]",< 50

# Same assay, conditions: Hepatitis B virus, 96 hours, 8-point dose-response curve, read-out: HBV inh EC50
row,Compound,EC50 [nM]
1,"Cc1nnc(C(=O)N2CC3COc4c(cn(C)c4C(=O)Nc4cc(F)c(F)c(F)c4)S(=O)(=O)NC3C2)o1 (stereo not drawn) [Example E51, cis-7-methyl-2-(5-methyl-1,3,4-oxadiazole-2-carbonyl)-N-(3,4,5-trifluorophenyl)-2,3,3a,4,10,10a-hexahydro-1H,7H-dipyrrolo[3,4-b:3′,4′-f][1,4,5]oxathiazocine-8-carboxamide 5,5-dioxide]",< 1000
2,"Cc1cc(NC(=O)c2c3c(cn2C)S(=O)(=O)N[C@H]2CN(C(=O)C4(C)CCCO4)C[C@H]2CO3)ccc1F (stereo partly drawn) [Example E111, (3aR,10aR)—N-(4-fluoro-3-methylphenyl)-7-methyl-2-(2-methyltetrahydrofuran-2-carbonyl)-2,3,3a,4,10,10a-hexahydro-1H,7H-dipyrrolo[3,4-b:3′,4′-f][1,4,5]oxathiazocine-8-carboxamide 5,5-dioxide]",< 1000
3,"CCOC(=O)N1C[C@H]2CSc3c(cn(C)c3C(=O)Nc3ccc(F)c(C)c3)S(=O)(=O)N[C@H]2C1 [Example E121, Ethyl (3aR,10aR)-8-((4-fluoro-3-methylphenyl)carbamoyl)-7-methyl-3a,4,10,10a-tetrahydro-1H,7H-dipyrrolo[3,4-c:3′,4′-g][1,6,2]dithiazocine-2(3H)-carboxylate 5,5-dioxide]",< 1000
4,"Cc1cc(NC(=O)c2c3c(cn2C)S(=O)(=O)NC2CCN(C(=O)C4(C)COC4)CC2CO3)ccc1F (racemic) [Example E126, Cis-N-(4-fluoro-3-methylphenyl)-2-methyl-8-(3-methyloxetane-3-carbonyl)-5,5a,6,7,8,9,9a,10-octahydro-2H-pyrido[4,3-f]pyrrolo[3,4-b][1,4,5]oxathiazocine-1-carboxamide 4,4-dioxide]",< 1000
5,"Cn1cc2c(c1C(=O)Nc1cc(F)c(F)c(F)c1)OCC1CCCC1NS2(=O)=O (racemic) [Example E28, cis (5aR,8aS and 5aS,8aR)-2-methyl-N-(3,4,5-trifluorophenyl)-5a,6,7,8,8a,9-hexahydro-2H,5H-cyclopenta[f]pyrrolo[3,4-b][1,4,5]oxathiazocine-1-carboxamide 4,4-dioxide]",< 1000
6,"Cc1noc(N2CC3COc4c(cn(C)c4C(=O)Nc4cc(F)c(F)c(F)c4)S(=O)(=O)NC3C2)n1 (stereo not drawn) [Example E83, cis-7-methyl-2-(3-methyl-1,2,4-oxadiazol-5-yl)-N-(3,4,5-trifluorophenyl)-2,3,3a,4,10,10a-hexahydro-1H,7H-dipyrrolo[3,4-b:3′,4′-f][1,4,5]oxathiazocine-8-carboxamide 5,5-dioxide]",< 1000
7,"Cc1cc(NC(=O)c2c3c(cn2C)S(=O)(=O)N[C@@H]2CCN(C(=O)C4(C)COC4)C[C@H]2CO3)ccc1F (relative stereo) [Example E131, Trans-N-(4-fluoro-3-methylphenyl)-2-methyl-8-(3-methyloxetane-3-carbonyl)-5,5a,6,7,8,9,9a,10-octahydro-2H-pyrido[4,3-f]pyrrolo[3,4-b][1,4,5]oxathiazocine-1-carboxamide 4,4-dioxide]",< 1000
8,"Cc1nnc(C(=O)N2CC3NS(=O)(=O)c4cn(C)c(C(=O)Nc5ccc(F)c(C)c5)c4OCC3(C)C2)o1 (stereo not drawn) [Example E86, cis-N-(4-fluoro-3-methylphenyl)-7,10a-dimethyl-2-(5-methyl-1,3,4-oxadiazole-2-carbonyl)-2,3,3a,4,10,10a-hexahydro-1H,7H-dipyrrolo[3,4-b:3′,4′-f][1,4,5]oxathiazocine-8-carboxamide 5,5-dioxide]",< 1000
9,"Cn1cc2c(c1C(=O)Nc1cc(F)c(F)c(F)c1)OCC1CN(C(=O)c3nonc3N)CC1NS2(=O)=O (stereo not drawn) [Example E60, cis-2-(4-amino-1,2,5-oxadiazole-3-carbonyl)-7-methyl-N-(3,4,5-trifluorophenyl)-2,3,3a,4,10,10a-hexahydro-1H,7H-dipyrrolo[3,4-b:3′,4′-f][1,4,5]oxathiazocine-8-carboxamide 5,5-dioxide]",< 1000
10,"Cn1cc2c(c1C(=O)Nc1cc(F)c(F)c(F)c1)OC1COCC1NS2(=O)=O (racemic) [Example E7, trans-7-methyl-N-(3,4,5-trifluorophenyl)-1,3a,4,9a-tetrahydro-3H,7H-furo[3,4-f]pyrrolo[3,4-b][1,4,5]oxathiazepine-8-carboxamide 5,5-dioxide]",< 1000
11,"Cn1cc2c(c1C(=O)Nc1cc(F)c(F)c(F)c1)OC[C@H]1CN(c3ncc(O)cn3)C[C@H]1NS2(=O)=O (relative stereo) [Example E84, cis-2-(5-hydroxypyrimidin-2-yl)-7-methyl-N-(3,4,5-trifluorophenyl)-2,3,3a,4,10,10a-hexahydro-1H,7H-dipyrrolo[3,4-b:3′,4′-f][1,4,5]oxathiazocine-8-carboxamide 5,5-dioxide]",< 1000
12,"Cc1cc(NC(=O)c2c3c(cn2C)S(=O)(=O)NC2CN(C(=O)C4(C)CCCO4)CC2CO3)ccc1F (stereo not drawn) [Example E148, Trans-N-(4-fluoro-3-methylphenyl)-7-methyl-2-(2-methyltetrahydrofuran-2-carbonyl)-2,3,3a,4,10,10a-hexahydro-1H,7H-dipyrrolo[3,4-b:3′,4′-f][1,4,5]oxathiazocine-8-carboxamide 5,5-dioxide]",< 1000
13,"Cn1cc2c(c1C(=O)Nc1cc(F)c(F)c(F)c1)OC[C@@H]1CN(C(=O)c3cocn3)C[C@@H]1NS2(=O)=O [Example E106, (3aR,10aR)-7-methyl-2-(oxazole-4-carbonyl)-N-(3,4,5-trifluorophenyl)-2,3,3a,4,10,10a-hexahydro-1H,7H-dipyrrolo[3,4-b:3′,4′-f][1,4,5]oxathiazocine-8-carboxamide 5,5-dioxide]",< 1000
14,"CCOC(=O)N1CC2COc3c(cn(C)c3C(=O)Nc3ccc(F)c(F)c3)S(=O)(=O)NC2C1 (racemic) [Example E13, Cis-Ethyl 8-((3,4-difluorophenyl)carbamoyl)-7-methyl-3a,4,10,10a-tetrahydro-1H,7H-dipyrrolo[3,4-b:3′,4′-f][1,4,5]oxathiazocine-2(3H)-carboxylate 5,5-dioxide]",< 1000
15,"Cn1cc2c(c1C(=O)Nc1cc(F)c(F)c(F)c1)OC[C@@H]1CN(C(=O)c3nnc(N)o3)C[C@@H]1NS2(=O)=O [Example E102, (3aR,10aR)-2-(5-amino-1,3,4-oxadiazole-2-carbonyl)-7-methyl-N-(3,4,5-trifluorophenyl)-2,3,3a,4,10,10a-hexahydro-1H,7H-dipyrrolo[3,4-b:3′,4′-f][1,4,5]oxathiazocine-8-carboxamide 5,5-dioxide]",< 1000
